The record followed here is patent US10336730B2, “Substituted glycine derived FXIA inhibitors” (BRISTOL-MYERS SQUIBB COMPANY, priority 2015, dated 2019).

The structures appear in SMILES notation.

In this assay the target is T1, purified human Factor XIa (Homo sapiens, UniProt P03951).
T1 construct: purchased Haematologic Technologies
T1 sequence (P03951 388-625 limits assumed): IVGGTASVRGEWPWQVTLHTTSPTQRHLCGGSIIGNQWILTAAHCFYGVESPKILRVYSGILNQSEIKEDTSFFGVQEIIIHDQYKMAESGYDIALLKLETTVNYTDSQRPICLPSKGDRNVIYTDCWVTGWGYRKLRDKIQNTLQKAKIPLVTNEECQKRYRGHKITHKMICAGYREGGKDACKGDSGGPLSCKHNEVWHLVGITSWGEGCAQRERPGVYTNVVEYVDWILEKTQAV
T1 sequence (P03951 19-387 partner limits assumed): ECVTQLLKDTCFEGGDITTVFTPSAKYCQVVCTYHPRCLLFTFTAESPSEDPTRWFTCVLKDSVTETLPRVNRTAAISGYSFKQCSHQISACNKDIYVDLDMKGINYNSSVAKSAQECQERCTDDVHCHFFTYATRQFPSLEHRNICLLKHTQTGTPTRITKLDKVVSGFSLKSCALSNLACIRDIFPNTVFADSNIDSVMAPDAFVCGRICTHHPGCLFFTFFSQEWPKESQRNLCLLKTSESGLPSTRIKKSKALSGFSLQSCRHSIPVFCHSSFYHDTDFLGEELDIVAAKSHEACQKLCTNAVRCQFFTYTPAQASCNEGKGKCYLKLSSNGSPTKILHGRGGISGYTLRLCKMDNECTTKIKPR
Briefly: Factor XIa enzyme inhibition assay (chromogenic substrate S-2366), Ki. It is filed as biochemical. The following applies: substrate S-2366, pH 7.4. As for the experimental part:
The effectiveness of compounds of the present invention as inhibitors of the coagulation Factors XIa, VIIa, IXa, Xa, XIIa, plasma kallikrein, thrombin, chemytrypsin or trypsin can be determined using a relevant purified serine protease, respectively, and an appropriate synthetic substrate. The rate of hydrolysis of the chromogenic or fluorogenic substrate by the relevant serine protease was measured both in the absence and presence of compounds of the present invention. […] A decrease in the rate of absorbance or fluorescence change in the presence of inhibitor is indicative of enzyme inhibition. Such methods are known to one skilled in the art. The results of this assay are expressed as the inhibitory constant, Ki.
Factor XIa determinations were made in 50 mM HEPES buffer at pH 7.4 containing 145 mM NaCl, 5 mM KCl, and 0.1% PEG 8000 (polyethylene glycol; JT Baker or Fisher Scientific). Determinations were made using purified human Factor XIa at a final concentration of […] (Haematologic Technologies) and the synthetic substrate S-2366 (pyroGlu-Pro-Arg-pNA; CHROMOGENIX® or AnaSpec) at a concentration of 0.0002-0.001 M.
Values of Ki were determined by allowing the protease to react with the substrate in the presence of the inhibitor. Reactions were allowed to go for periods of 20-180 minutes (depending on the protease) and the velocities (rate of absorbance or fluorescence change versus time) were measured. The following relationships were used to calculate Ki values: (Vmax*S)/(Km+S) (vo−vs)/vs=I/(Ki*(1+S/Km)) for a competitive inhibitor with one binding site; or vs/vo=A+(B−A)/(1+(IC50/(I)^n)); and Ki=IC50/(1+S/Km) for a competitive inhibitor where: […]
For orientation: Ki means a measure of affinity in units of concentration, obtained from inhibition or displacement. Lower therefore signals tighter binding. `O=C(Nc1ccc(OC2CCOCC2)cc1)[C@H](Cc1ccccc1)n1cnc(-c2cc(Cl)ccc2-n2cc(Cl)nn2)cc1=O` [Example 41, (S)-2-(4-(5-chloro-2-(4-chloro-1H-1,2,3-triazol-1-yl)phenyl)-6-oxopyrimidin-1(6H)-yl)-3-phenyl-N-(4-((tetrahydro-2H-pyran-4-yl)oxy)phenyl)propanamide] gave a Ki of 0.117 µM. `CCOC(=O)c1ccc(NC(=O)[C@H](Cc2ccccc2)n2cnc(-c3cc(Cl)ccc3-n3cc(Cl)nn3)cc2=O)cc1` [Example 42, ethyl (S)-4-(2-(4-(5-chloro-2-(4-chloro-1H-1,2,3-triazol-1-yl)phenyl)-6-oxopyrimidin-1(6H)-yl)-3-phenylpropanamido)benzoate] came in with a Ki of 0.196 µM.

`N#Cc1ccc(NC(=O)[C@H](Cc2ccccc2)n2cnc(-c3cc(Cl)ccc3-n3cc(Cl)nn3)cc2=O)cn1` [Example 43, (S)-2-(4-(5-chloro-2-(4-chloro-1H-1,2,3-triazol-1-yl)phenyl)-6-oxopyrimidin-1(6H)-yl)-N-(6-cyanopyridin-3-yl)-3-phenylpropanamide] came in with a Ki of 0.208 µM. Then `CCn1nc(C)cc1NC(=O)[C@H](Cc1ccccc1)n1cnc(-c2cc(Cl)ccc2-n2cc(Cl)nn2)cc1=O` [Example 44, (S)-2-(4-(5-chloro-2-(4-chloro-1H-1,2,3-triazol-1-yl)phenyl)-6-oxopyrimidin-1(6H)-yl)-N-(1-ethyl-3-methyl-1H-pyrazol-5-yl)-3-phenylpropanamide], with 0.395 µM. Regarding `COC(=O)Cc1ccc(NC(=O)[C@H](Cc2ccccc2)n2cnc(-c3cc(Cl)ccc3-n3cc(Cl)nn3)cc2=O)cc1` [Example 45, methyl (S)-2-(4-(2-(4-(5-chloro-2-(4-chloro-1H-1,2,3-triazol-1-yl)phenyl)-6-oxopyrimidin-1(6H)-yl)-3-phenylpropanamido)phenyl)acetate], the affinity, expressed as Ki, was 0.0882 µM. `O=C(Nc1ccc2[nH]cnc2c1)[C@H](Cc1ccccc1)n1cnc(-c2cc(Cl)ccc2-n2cc(Cl)nn2)cc1=O` [Example 46, (S)-N-(1H-benzo[d]imidazol-5-yl)-2-(4-(5-chloro-2-(4-chloro-1H-1,2,3-triazol-1-yl)phenyl)-6-oxopyrimidin-1(6H)-yl)-3-phenylpropanamide] yielded a Ki of 0.0083 µM. `O=C(Nc1ccc2[nH]ccc2n1)[C@H](Cc1ccccc1)n1cnc(-c2cc(Cl)ccc2-n2cc(Cl)nn2)cc1=O` [Example 47, (S)-2-(4-(5-chloro-2-(4-chloro-1H-1,2,3-triazol-1-yl)phenyl)-6-oxopyrimidin-1(6H)-yl)-3-phenyl-N-(1H-pyrrolo[3,2-b]pyridin-5-yl)propanamide] had an inhibition constant (Ki) of 0.154 µM.

The compound `O=C(NCc1nccs1)[C@H](Cc1ccccc1)n1cnc(-c2cc(Cl)ccc2-n2cc(Cl)nn2)cc1=O` [Example 50, (S)-2-(4-(5-chloro-2-(4-chloro-1H-1,2,3-triazol-1-yl)phenyl)-6-oxopyrimidin-1(6H)-yl)-3-phenyl-N-(thiazol-2-ylmethyl)propanamide] showed a Ki of 6.59 µM. The compound `Cc1cnc(CNC(=O)[C@H](Cc2ccccc2)n2cnc(-c3cc(Cl)ccc3-n3cc(Cl)nn3)cc2=O)cn1` [Example 51, (S)-2-(4-(5-chloro-2-(4-chloro-1H-1,2,3-triazol-1-yl)phenyl)-6-oxopyrimidin-1(6H)-yl)-N-((5-methylpyrazin-2-yl)methyl)-3-phenylpropanamide] registered a Ki of 1.48 µM. In the case of `O=C([C@H](Cc1ccccc1)n1cnc(-c2cc(Cl)ccc2-n2cc(Cl)nn2)cc1=O)N1CCC(c2ccc(Cl)cc2)CC1` [Example 52, (S)-6-(5-chloro-2-(4-chloro-1H-1,2,3-triazol-1-yl)phenyl)-3-(1-(4-(4-chlorophenyl)piperidin-1-yl)-1-oxo-3-phenylpropan-2-yl)pyrimidin-4(3H)-one], the Ki amounted to 4.44 µM.

Compound `O=C1CN(C(=O)[C@H](Cc2ccccc2)n2cnc(-c3cc(Cl)ccc3-n3cc(Cl)nn3)cc2=O)CCN1` [Example 53, (S)-6-(5-chloro-2-(4-chloro-1H-1,2,3-triazol-1-yl)phenyl)-3-(1-oxo-1-(3-oxopiperazin-1-yl)-3-phenylpropan-2-yl)pyrimidin-4(3H)-one] registered a Ki of 7.62 µM. As for `CN1[C@@H]2CC[C@H]1C[C@@H](NC(=O)[C@H](Cc1ccccc1)n1cnc(-c3cc(Cl)ccc3-n3cc(Cl)nn3)cc1=O)C2` [Example 54, (S)-2-(4-(5-chloro-2-(4-chloro-1H-1,2,3-triazol-1-yl)phenyl)-6-oxopyrimidin-1(6H)-yl)-N-((1R,3r,5S)-8-methyl-8-azabicyclo[3.2.1]octan-3-yl)-3-phenylpropanamide], the figure is 3.99 µM; as for `O=C1CCN(C(=O)[C@H](Cc2ccccc2)n2cnc(-c3cc(Cl)ccc3-n3cc(Cl)nn3)cc2=O)CCN1` [Example 55, (S)-1-(2-(4-(5-chloro-2-(4-chloro-1H-1,2,3-triazol-1-yl)phenyl)-6-oxopyrimidin-1(6H)-yl)-3-phenylpropanoyl)-1,4-diazepan-5-one], 4.94 µM; as for `O=C([C@H](Cc1ccccc1)n1cnc(-c2cc(Cl)ccc2-n2cc(Cl)nn2)cc1=O)N1CCC(CO)CC1` [Example 56, (S)-6-(5-chloro-2-(4-chloro-1H-1,2,3-triazol-1-yl)phenyl)-3-(1-(4-(hydroxymethyl)piperidin-1-yl)-1-oxo-3-phenylpropan-2-yl)pyrimidin-4(3H)-one], 7.37 µM. `O=C([C@H](Cc1ccccc1)n1cnc(-c2cc(Cl)ccc2-n2cc(Cl)nn2)cc1=O)N1CCN(c2ccncc2)CC1` [Example 57, (S)-6-(5-chloro-2-(4-chloro-1H-1,2,3-triazol-1-yl)phenyl)-3-(1-oxo-3-phenyl-1-(4-(pyridin-4-yl)piperazin-1-yl)propan-2-yl)pyrimidin-4(3H)-one] displayed a Ki of 4.89 µM. Then `COCCN(C)C(=O)[C@H](Cc1ccccc1)n1cnc(-c2cc(Cl)ccc2-n2cc(Cl)nn2)cc1=O` [Example 58, (S)-2-(4-(5-chloro-2-(4-chloro-1H-1,2,3-triazol-1-yl)phenyl)-6-oxopyrimidin-1(6H)-yl)-N-(2-methoxyethyl)-N-methyl-3-phenylpropanamide], with 7.86 µM; and `NC(=O)CCNC(=O)[C@H](Cc1ccccc1)n1cnc(-c2cc(Cl)ccc2-n2cc(Cl)nn2)cc1=O` [Example 59, (S)-N-(3-amino-3-oxopropyl)-2-(4-(5-chloro-2-(4-chloro-1H-1,2,3-triazol-1-yl)phenyl)-6-oxopyrimidin-1(6H)-yl)-3-phenylpropanamide], with 6.17 µM; and `CC(=O)N1CCN(C(=O)[C@H](Cc2ccccc2)n2cnc(-c3cc(Cl)ccc3-n3cc(Cl)nn3)cc2=O)CC1` [Example 60, (S)-3-(1-(4-acetylpiperazin-1-yl)-1-oxo-3-phenylpropan-2-yl)-6-(5-chloro-2-(4-chloro-1H-1,2,3-triazol-1-yl)phenyl)pyrimidin-4(3H)-one], with 7.37 µM. The compound `COC(=O)CCNC(=O)[C@H](Cc1ccccc1)n1cnc(-c2cc(Cl)ccc2-n2cc(Cl)nn2)cc1=O` [Example 61, methyl (S)-3-(2-(4-(5-chloro-2-(4-chloro-1H-1,2,3-triazol-1-yl)phenyl)-6-oxopyrimidin-1(6H)-yl)-3-phenylpropanamido)propanoate] registered a Ki of 3.65 µM.

Compound `NC(=O)CNC(=O)[C@H](Cc1ccccc1)n1cnc(-c2cc(Cl)ccc2-n2cc(Cl)nn2)cc1=O` [Example 62, (S)-N-(2-amino-2-oxoethyl)-2-(4-(5-chloro-2-(4-chloro-1H-1,2,3-triazol-1-yl)phenyl)-6-oxopyrimidin-1(6H)-yl)-3-phenylpropanamide] displayed a Ki of 8.98 µM. As for `CN(C)C1CCN(C(=O)[C@H](Cc2ccccc2)n2cnc(-c3cc(Cl)ccc3-n3cc(Cl)nn3)cc2=O)CC1` [Example 63, (S)-6-(5-chloro-2-(4-chloro-1H-1,2,3-triazol-1-yl)phenyl)-3-(1-(4-(dimethylamino)piperidin-1-yl)-1-oxo-3-phenylpropan-2-yl)pyrimidin-4(3H)-one], the figure is 7.5 µM; as for `NS(=O)(=O)c1ccc(CNC(=O)[C@H](Cc2ccccc2)n2cnc(-c3cc(Cl)ccc3-n3cc(Cl)nn3)cc2=O)cc1` [Example 64, (S)-2-(4-(5-chloro-2-(4-chloro-1H-1,2,3-triazol-1-yl)phenyl)-6-oxopyrimidin-1(6H)-yl)-3-phenyl-N-(4-sulfamoylbenzyl)propanamide], 1.27 µM. As for `CCOC(=O)c1cn2c(n1)CN(C(=O)[C@H](Cc1ccccc1)n1cnc(-c3cc(Cl)ccc3-n3cc(Cl)nn3)cc1=O)CC2` [Example 65, ethyl (S)-7-(2-(4-(5-chloro-2-(4-chloro-1H-1,2,3-triazol-1-yl)phenyl)-6-oxopyrimidin-1(6H)-yl)-3-phenylpropanoyl)-5,6,7,8-tetrahydroimidazo[1,2-a]pyrazine-2-carboxylate], the figure is 4.94 µM; as for `CN1CCC2(CCCN(C(=O)[C@H](Cc3ccccc3)n3cnc(-c4cc(Cl)ccc4-n4cc(Cl)nn4)cc3=O)C2)C1=O` (stereo partly drawn) [Example 66, 7-((S)-2-(4-(5-chloro-2-(4-chloro-1H-1,2,3-triazol-1-yl)phenyl)-6-oxopyrimidin-1(6H)-yl)-3-phenylpropanoyl)-2-methyl-2,7-diazaspiro[4.5]decan-1-one], 12.2 µM.
